In US12686692B2, “KRas G12D inhibitors” (Mirati Therapeutics, Inc., priority 2020, dated 2026):

Assays:
KRas G12D [1] = target: T1, KRas G12D (Homo sapiens, UniProt P01116, G12D); experiment: KRas G12D Surface Plasmon Resonance (SPR) Binding Assay; details: Biacore T200, biotinylated Avidin-tagged KRAS protein on SA chip, 20 C, 1:1 binding model
Protocol: This Example illustrates that exemplary compounds of the present invention bind to KRas G12D as measured by surface plasmon resonance (SPR). Briefly, 1 L of 1.05×HBS-Mg buffer (262.5 mM BioUltra Hepes, pH 7.5, 157.5 mM NaCl, 105 mM MgCl2, 0.525 mM TCEP, […] Brij-35) was prepared and filter sterilized using a 0.22 μm bottle top filter. Approximately 50 mL of 1.05×HBS-Mg buffer was removed and saved for future dilutions. A 50 mL aliquot of DMSO (Sigma Aldrich DMSO Lot. #SHBK2079) was added and continued to stir for 10 minutes, creating the final 1.0×HBS-Mg buffer (250 mM BioUltra Hepes pH 7.5, 150 mM NaCl, 100 mM MgCl2, 0.5 mM TCEP, 0.03% Brij-35). Biacore T200 instrument was primed using 1.0×HBS-Mg buffer before docking a GE Streptavidin (SA) chip and then primed two additional times prior to beginning the immobilization step. All immobilized protein mixtures were created using 3-5 mg/mL Biotinylated Avidin-tagged KRAS protein using the following immobilization settings: SA chip type, 1 flow cells per cycle, 720 second contact time, and 5 μL/min flow rate. Normalization of the detector was also performed during the immobilization step using the GE BiaNormalize solution. All compounds were diluted to 10 mM in 100% DMSO prior to being diluted 20× in 1.05× buffer. Another 10× dilution was created using 1.0× buffer prior to performing a series of 3× dilutions to create a compound concentration curve using the following assay settings: 20 C analysis temperature, General Settings=10 Hz data collection rate and multi-detection; Assay Steps=all set to LMW kinetics; Cycle Types=LMW kinetics (60s contact time, 120s dissociation time, 100 μL/min flow rate, extra wash after injection with 50% DMSO, flow path 1,2,3,4); Flow path detection=2-1, 4-3). Data evaluation was performed using the Biacore T200 Evaluation software and data fit to 1:1 binding model.
Target sequence in this assay (P01116 1-188 isoform P01116-2 G12D): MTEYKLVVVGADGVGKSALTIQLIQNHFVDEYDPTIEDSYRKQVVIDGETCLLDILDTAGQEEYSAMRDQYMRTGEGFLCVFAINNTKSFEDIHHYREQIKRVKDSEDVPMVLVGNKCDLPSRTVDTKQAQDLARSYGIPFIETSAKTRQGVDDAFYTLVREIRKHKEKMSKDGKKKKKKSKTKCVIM

KRas G12D [2] = target: T1, KRas G12D; experiment: KRas G12D Binding Assay (TR-FRET displacement of labeled tracer); parameters: corresponding to amino acids 1:169, produced at Array BioPharma; biotin (protein is biotinylated); details: TR-FRET displacement of Cy5 labelled tracer, biotinylated GDP-loaded KRAS G12D (aa 1:169), 60 minute incubation at 22° C.
Method in brief: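 Biotinylated GDP-loaded human KRAS G12D (aa 1–169) incubated with Cy5 tracer, Eu-streptavidin and compound (2% DMSO final) in 50 mM HEPES pH 7.5, 5 mM MgCl2, 0.005% Tween-20, 1 mM DTT, 60 min at 22 °C. TR-FRET ratio converted to percent of control; IC50 at 50 POC from 4-parameter logistic fit.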
Target sequence in this assay (P01116 1-169 isoform P01116-2 G12D): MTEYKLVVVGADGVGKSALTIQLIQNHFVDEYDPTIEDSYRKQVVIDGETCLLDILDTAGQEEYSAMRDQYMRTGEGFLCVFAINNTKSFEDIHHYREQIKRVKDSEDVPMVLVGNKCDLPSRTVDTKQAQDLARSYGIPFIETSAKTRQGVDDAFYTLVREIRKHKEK

[3] = test system: KRas G12D-mediated Phosphorylation of ERK; experiment: Inhibition of KRas G12D-mediated Phosphorylation of ERK in AGS cells; format: cell-based; details: Homo sapiens; AGS cells expressing G12D, 3 hours, phospho-ERK normalized to GAPDH
Protocol: AGS cells (ATCC CRL-1739) expressing G12D were grown in DMEM medium supplemented with 10% fetal bovine serum, 10 mM HEPES, and Penicillin/Streptomycin. Cells were plated in tissue culture treated 96 well plates at a density of 40,000 cells/well and allowed to attach for 12-14 hours. Diluted compounds were then added in a final concentration of 0.5% DMSO. After 3 hours, the medium was removed, 150 μl of 4.0% formaldehyde was added and the plates incubated at room temperature for 20 minutes. The plates were washed with PBS, and permeabilized with 150 μL of ice cold 100% methanol for 10 minutes. Non-specific antibody binding to the plates was blocked using 100 μL Licor blocking buffer (Li-Cor Biotechnology, Lincoln NE) for 1 hour at room temperature.
The amount of phospho-ERK was determined using an antibody specific for the phosphorylated form of ERK and compared to the amount of GAPDH. Primary antibodies used for the detection were added as follows: Phospho-ERK(Cell Signaling cs-9101) diluted 1:500 and GAPDH(Millipore MAB374) diluted 1:5000 in Licor block+0.05% Tween 20. The plates were incubated for 2 hours at room temperature. The plates were washed with PBS+0.05% Tween 20.
Secondary antibodies used to visualize primary antibodies were added as follows: Anti-rabbit-680 diluted 1:1000 and Anti-mouse-800 diluted 1:1000 both in Licor block+0.05% Tween20, and were incubated for 1 hour at room temperature. The plates were washed with PBS+0.05% Tween 20. A 100 μl aliquot of PBS was added to each well and the plates were read on a Li-Cor Odyssey CLX plate reader.
The phospho-ERK(Thr202/Tyr204 signal was normalized to the GAPDH signal for each well and percent of DMSO control values were calculated. IC50 values were generated using a 4-parameter fit of the dose response curve.

| SMILES | Kd (KRas G12D [1]) [nM] | IC50 (KRas G12D [2]) [nM] | IC50 [3] [nM] |
| --- | --- | --- | --- |
| CN1CCC[C@H]1COc1nc2c(c(N3C[C@H]4CC[C@@H](C3)N4)n1)CCN(c1cccc3cccc(CCCCO)c13)C2 [Example 84, 4-(8-(4-((1R,5S)-3,8-diazabicyclo[3.2.1]octan-3-yl)-2-(((S)-1-methylpyrrolidin-2-yl)methoxy)-5,8-dihydropyrido[3,4-d]pyrimidin-7(6H)-yl)naphthalen-1-yl)butan-1-ol] | 8710 | 3690 |  |
| Cc1ccc2[nH]ncc2c1N1CCc2c(nc(OC[C@@H]3CCCN3C)nc2N2C[C@H]3CC[C@@H](C2)N3)C1 [Example 3, 4-((1R,5S)-3,8-diazabicyclo[3.2.1]octan-3-yl)-7-(5-methyl-1H-indazol-4-yl)-2-(((S)-1-methylpyrrolidin-2-yl)methoxy)-5,6,7,8-tetrahydropyrido[3,4-d]pyrimidine] | 6370 | 1320 |  |
| COc1nc2c(c(N3C[C@H]4CC[C@@H](C3)N4)n1)CCN(c1cccc3cccc(C)c13)C2 [Example 22, 4-((1R,5S)-3,8-diazabicyclo[3.2.1]octan-3-yl)-2-methoxy-7-(8-methylnaphthalen-1-yl)-5,6,7,8-tetrahydropyrido[3,4-d]pyrimidine] | 302000 | 7860 |  |
| CN1CCC[C@H]1COc1nc2c(c(N3C[C@H]4CC[C@@H](C3)N4)n1)CCN(c1c(F)c(O)c(F)c3ccccc13)C2 [Example 25, 4-(4-((1R,5S)-3,8-diazabicyclo[3.2.1]octan-3-yl)-2-(((S)-1-methylpyrrolidin-2-yl)methoxy)-5,8-dihydropyrido[3,4-d]pyrimidin-7(6H)-yl)-1,3-difluoronaphthalen-2-ol] | 847 | 6790 |  |
| CN1CCC[C@H]1COc1nc2c(c(N3C[C@@H]4C[C@H](CO)[C@H](C3)N4)n1)CCN(c1cc(O)cc3ccccc13)C2 [Example 120, 4-(4-((1S,5R,6S)-6-(hydroxymethyl)-3,8-diazabicyclo[3.2.1]octan-3-yl)-2-(((S)-1-methylpyrrolidin-2-yl)methoxy)-5,8-dihydropyrido[3,4-d]pyrimidin-7(6H)-yl)naphthalen-2-ol] | 1400 |  |  |
| CCc1cccc2cccc(N3CCc4c(nc(OCC56CCCN5CC(F)C6)nc4N4C[C@H]5CC[C@@H](C4)N5)C3)c12 (mixture of isomers) [Example 9, 4-((1R,5S)-3,8-diazabicyclo[3.2.1]octan-3-yl)-7-(8-ethylnaphthalen-1-yl)-2-((2-fluorotetrahydro-1H-pyrrolizin-7a(5H)-yl)methoxy)-5,6,7,8-tetrahydropyrido[3,4-d]pyrimidine (racemic, trans)] |  | 3.1 | 1660 |
| CCc1cccc2cccc(N3CCc4c(nc(OCC56CCCN5CCC6)nc4N4C[C@H]5CC[C@@H](C4)N5)C3)c12 [Example 10, 4-((1R,5S)-3,8-diazabicyclo[3.2.1]octan-3-yl)-7-(8-ethylnaphthalen-1-yl)-2-((tetrahydro-1H-pyrrolizin-7a(5H)-yl)methoxy)-5,6,7,8-tetrahydropyrido[3,4-d]pyrimidine] |  | 1.1 | 738 |
| CCc1c(F)ccc2cccc(N3CCc4c(nc(OCC56CCCN5C[C@H](F)C6)nc4N4CC5CCC(C4)N5)C3)c12 (mixture of isomers) [Example 20, 4-((1R,5S)-3,8-diazabicyclo[3.2.1]octan-3-yl)-7-(8-ethyl-7-fluoronaphthalen-1-yl)-2-((2-fluorotetrahydro-1H-pyrrolizin-7a(5H)-yl)methoxy)-5,6,7,8-tetrahydropyrido[3,4-d]pyrimidine (racemic, trans)] |  | 2.8 | 539 |
| F[C@H]1CN2CCCC2(COc2nc3c(c(N4CC5CCC(C4)N5)n2)CCN(c2cccc(Cl)c2C2CC2)C3)C1 (mixture of isomers) [Example 17, 4-((1R,5S)-3,8-diazabicyclo[3.2.1]octan-3-yl)-7-(3-chloro-2-cyclopropylphenyl)-2-((2-fluorotetrahydro-1H-pyrrolizin-7a(5H)-yl)methoxy)-5,6,7,8-tetrahydropyrido[3,4-d]pyrimidine (racemic, trans)] |  | 29.5 | > 16700 |
| CCc1cccc2cccc(N3CCc4c(nc(OCC56CCCN5C(COC(=O)N5CC[C@H](O)C5)CC6)nc4N4C[C@H]5CC[C@@H](C4)N5)C3)c12 (stereo partly drawn) [Example 105, (7a-(((4-((1R,5S)-3,8-diazabicyclo[3.2.1]octan-3-yl)-7-(8-ethylnaphthalen-1-yl)-5,6,7,8-tetrahydropyrido[3,4-d]pyrimidin-2-yl)oxy)methyl)hexahydro-1H-pyrrolizin-3-yl)methyl (3S)-3-hydroxypyrrolidine-1-carboxylate] |  | 2.3 | 561 |
| Oc1cc(N2CCc3c(nc(OC[C@@]45CCCN4C[C@H](F)C5)nc3N3C[C@H]4CC[C@@H](C3)N4)C2)c2c(Cl)cccc2c1 [Example 117, 4-(4-((1R,5S)-3,8-diazabicyclo[3.2.1]octan-3-yl)-2-(((2R,7aS)-2-fluorohexahydro-1H-pyrrolizin-7a-yl)methoxy)-5,6-dihydropyrido[3,4-d]pyrimidin-7(8H)-yl)-5-chloronaphthalen-2-ol] |  | 0.7 | 76 |
| CCc1cccc2cccc(N3CCc4c(nc(OC[C@@H]5CCCN5C)nc4N4C[C@H]5CC[C@@H](C4)N5)C3)c12 [Example 8, 4-((1R,5S)-3,8-diazabicyclo[3.2.1]octan-3-yl)-7-(8-ethylnaphthalen-1-yl)-2-(((S)-1-methylpyrrolidin-2-yl)methoxy)-5,6,7,8-tetrahydropyrido[3,4-d]pyrimidine] |  | 5.5 | 12600 |
| CCc1cccc2cc(O)cc(N3CCc4c(nc(OCC56CCCN5CCC6)nc4N4C[C@H]5CC[C@@H](C4)N5)C3)c12 [Example 14, 4-(4-((1R,5S)-3,8-diazabicyclo[3.2.1]octan-3-yl)-2-((tetrahydro-1H-pyrrolizin-7a(5H)-yl)methoxy)-5,8-dihydropyrido[3,4-d]pyrimidin-7(6H)-yl)-5-ethylnaphthalen-2-ol] |  | 1.1 | 21 |
| CN1CCC[C@H]1COc1nc2c(c(N3C[C@H]4CC[C@@H](C3)N4)n1)CCN(c1cccc3c1C(CC#N)CCC3)C2 (stereo partly drawn) [Example 85, 2-(8-(4-((1R,5S)-3,8-diazabicyclo[3.2.1]octan-3-yl)-2-(((S)-1-methylpyrrolidin-2-yl)methoxy)-5,8-dihydropyrido[3,4-d]pyrimidin-7(6H)-yl)-1,2,3,4-tetrahydronaphthalen-1-yl)acetonitrile] | 1510 |  |  |
| Cc1cccc2cccc(N3CCc4c(nc(OCC56CCCN5C[C@H](F)C6)nc4N4CC5CCC(C4)N5)C3)c12 (mixture of isomers) [Example 50, 4-((1R,5S)-3,8-diazabicyclo[3.2.1]octan-3-yl)-2-((2-fluorotetrahydro-1H-pyrrolizin-7a(5H)-yl)methoxy)-7-(8-methylnaphthalen-1-yl)-5,6,7,8-tetrahydropyrido[3,4-d]pyrimidine] |  | 7.1 | > 16700 |
